From ChEMBL document CHEMBL2034824, “Pyridyl-2,5-diketopiperazines as potent, selective, and orally bioavailable oxytocin antagonists: synthesis, pharmacokinetics, and in vivo potency” (J Med Chem, 2012)

Experiments:
[1] = molecular target: T1, Oxytocin receptor (Homo sapiens, UniProt P30559); experiment: Antagonist activity at human oxytocin receptor assessed as inhibition of oxytocin binding by FLIPR analysis
T1 sequence (P30559 whole entry): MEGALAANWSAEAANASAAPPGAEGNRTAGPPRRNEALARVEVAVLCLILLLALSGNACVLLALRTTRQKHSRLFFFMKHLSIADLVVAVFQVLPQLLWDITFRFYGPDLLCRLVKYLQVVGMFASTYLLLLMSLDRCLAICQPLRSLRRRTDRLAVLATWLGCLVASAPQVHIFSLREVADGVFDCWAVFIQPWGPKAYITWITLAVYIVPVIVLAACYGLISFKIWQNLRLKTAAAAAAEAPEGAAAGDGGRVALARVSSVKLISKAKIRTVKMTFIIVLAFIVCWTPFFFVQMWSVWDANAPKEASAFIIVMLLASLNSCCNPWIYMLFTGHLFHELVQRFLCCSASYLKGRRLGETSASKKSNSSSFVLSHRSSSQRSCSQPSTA

[2] = test system: Liver; experiment: Intrinsic clearance in dog liver microsomes; format: ADME, Canis lupus familiaris, Microsome
[3] = molecular target: T1, Oxytocin receptor; experiment: Displacement of [3H]oxytocin from human oxytocin receptor
[4] = AUC in cynomolgus monkey at 2 mg/kg, po; format: ADME, organism-based, Macaca fascicularis; design: dose 2 mg/kg, route oral; conditions: plasma
[5] = Clearance in rat at 5 mg/kg; format: ADME, organism-based; design: dose 5 mg/kg; conditions: in vivo
[6] = test system: Liver microsomes; experiment: Intrinsic clearance in rat liver microsomes; format: ADME, Microsome
[7] = AUC in rat at 5 mg/kg, po; format: ADME, organism-based; design: dose 5 mg/kg, route oral; conditions: plasma
[8] = Oral bioavailability in rat at 5 mg/kg; format: ADME, organism-based; conditions: in vivo
[9] = Clearance in dog at 0.6 mg/kg; format: ADME, organism-based, Canis lupus familiaris; design: dose 0.6 mg/kg; conditions: in vivo
[10] = Oral bioavailability in cynomolgus monkey at 2 mg/kg; format: ADME, organism-based, Macaca fascicularis; conditions: in vivo
[11] = Clearance in cynomolgus monkey at 2 mg/kg; format: ADME, organism-based, Macaca fascicularis; design: dose 2 mg/kg; conditions: in vivo
[12] = test system: Liver microsomes; experiment: Intrinsic clearance in human liver microsomes; format: ADME, Microsome
[13] = Intrinsic clearance in cynomolgus monkey liver microsomes; format: ADME, Macaca fascicularis, Microsome
[14] = AUC in dog at 0.6 mg/kg, po; format: ADME, organism-based, Canis lupus familiaris; design: dose 0.6 mg/kg, route oral; conditions: plasma
[15] = Oral bioavailability in dog at 0.6 mg/kg; format: ADME, organism-based, Canis lupus familiaris; conditions: in vivo

SMILES | Ki [1] [nM] | CLH [2] [mL/min/g] | Ki [3] [nM] | AUC [4] [ng·h/mL] | clearance [5] [mL/min/kg] | CLH [6] [mL/min/g] | AUC [7] [ng·h/mL] | bioavailability [8] [%] | clearance [9] [mL/min/kg] | bioavailability [10] [%] | clearance [11] [mL/min/kg] | CLH [12] [mL/min/g] | CLH [13] [mL/min/g] | AUC [14] [ng·h/mL] | bioavailability [15] [%]
CC(C)C[C@@H]1C(=O)N[C@H](C2Cc3ccccc3C2)C(=O)N1[C@@H](C(=O)NC(C)C)c1ccccc1-c1ccccc1 | 39.8 | – | – | – | – | – | – | – | – | – | – | – | – | – | –
CCc1ccccc1[C@H](C(=O)NC(C)C)N1C(=O)[C@@H](C2Cc3ccccc3C2)NC(=O)[C@H]1CC(C)C | 15.8 | – | – | – | – | – | – | – | – | – | – | – | – | – | –
CC[C@H](C)[C@@H]1C(=O)N[C@H](C2Cc3ccccc3C2)C(=O)N1[C@@H](C(=O)N1CCOCC1)c1coc(C)n1 [RETOSIBAN] | – | – | – | 45 | – | – | – | – | – | 10 | 26 | 3 | 6 | – | –

Next, values leading:

Ki [1] [nM] | CLH [2] [mL/min/g] | Ki [3] [nM] | AUC [4] [ng·h/mL] | clearance [5] [mL/min/kg] | CLH [6] [mL/min/g] | AUC [7] [ng·h/mL] | bioavailability [8] [%] | clearance [9] [mL/min/kg] | bioavailability [10] [%] | clearance [11] [mL/min/kg] | CLH [12] [mL/min/g] | CLH [13] [mL/min/g] | AUC [14] [ng·h/mL] | bioavailability [15] [%] | SMILES
– | 1 | 0.0794 | 17 | 15 | 1 | 4720 | 84 | 14 | 1 | 20 | 7 | 14 | 305 | 44 | CC[C@H](C)[C@@H]1C(=O)N[C@H](C2Cc3ccccc3C2)C(=O)N1[C@@H](C(=O)N(C)C)c1ccc(C)nc1C
39.8 | – | – | – | – | – | – | – | – | – | – | – | – | – | – | CC(C)C[C@@H]1C(=O)N[C@H](C2Cc3ccccc3C2)C(=O)N1[C@@H](C(=O)NC(C)C)c1ccccc1OC(F)(F)F
– | 2 | 0.1 | 29 | 17 | 1 | 1470 | 28 | 22 | 4 | 24 | 4 | 8 | 173 | 38 | CCC(CC)[C@@H]1C(=O)N[C@H](C2Cc3ccccc3C2)C(=O)N1[C@@H](C(=O)NC)c1ccc(C)nc1
3.98 | – | – | – | – | – | – | – | – | – | – | – | – | – | – | CC(C)C[C@@H]1C(=O)N[C@H](C2Cc3ccccc3C2)C(=O)N1[C@@H](C(=O)NC(C)C)c1ccccc1Cl
